In ChEMBL document CHEMBL5647681, “Lack of the aryl hydrocarbon receptor leads to impaired activation of AKT/protein kinase B and enhanced sensitivity to apoptosis induced via the intrinsic pathway” (J Pharmacol Exp Ther, 2007):
The source made the active and inactive calls. The rule behind the calls is not given here.

Columns and labels:
[1] = Toxicity in AHR deficient mouse LA1 cells assessed as induction of apoptosis by measuring increase in caspase-3 activity at 0.1 to 1 uM incubated for 24 hrs in absence of UV-irradiation by caspase 3 Assay; settings: la1, 24 h
[2] = molecular target: Aryl hydrocarbon receptor (Mus musculus) (UniProt P30561); assay: Antagonist activity at AHR in wild type mouse Hepa1c1c7 cells assessed as reduction in inhibition of Akt/PKB phosphorylation at 10 uM incubated for 24 hrs before UV-irradiation and measured after 30 to 60 mins by Western blot analysis; settings: hepa1c1c7, 10 µM
[3] = test system: LA1; assay: Potentiation of UV-irradiation-induced apoptosis in AHR deficient mouse LA1 cells assessed as increase in caspase-3 activity at 0.1 to 1 uM incubated for 24 hrs before UV-irradiation for 24 hrs by caspase 3 Assay; settings: dose 0.1-1 µM, time 48.0 hrs
[4] = molecular target: Aryl hydrocarbon receptor (Mus musculus) (UniProt P30561); assay: Antagonist activity at AHR in wild type mouse Hepa1c1c7 cells assessed as reduction in inhibition of EGFR phosphorylation at 10 uM incubated for 24 hrs before UV-irradiation and measured after 30 mins by Western blot analysis; settings: hepa1c1c7, 24 h
[5] = molecular target: Aryl hydrocarbon receptor (Mus musculus) (UniProt P30561); assay: Antagonist activity at AHR in wild type mouse Hepa1c1c7 cells assessed as potentiation of UV-irradiation-induced apoptosis by measuring increase in caspase-3 activity at 0.1 to 1 uM incubated for 24 hrs before UV-irradiation for 24 hrs by caspase 3 Assay; settings: hepa1c1c7, 48 h

Sequence of Aryl hydrocarbon receptor (Mus musculus) (P30561 whole entry, looked up): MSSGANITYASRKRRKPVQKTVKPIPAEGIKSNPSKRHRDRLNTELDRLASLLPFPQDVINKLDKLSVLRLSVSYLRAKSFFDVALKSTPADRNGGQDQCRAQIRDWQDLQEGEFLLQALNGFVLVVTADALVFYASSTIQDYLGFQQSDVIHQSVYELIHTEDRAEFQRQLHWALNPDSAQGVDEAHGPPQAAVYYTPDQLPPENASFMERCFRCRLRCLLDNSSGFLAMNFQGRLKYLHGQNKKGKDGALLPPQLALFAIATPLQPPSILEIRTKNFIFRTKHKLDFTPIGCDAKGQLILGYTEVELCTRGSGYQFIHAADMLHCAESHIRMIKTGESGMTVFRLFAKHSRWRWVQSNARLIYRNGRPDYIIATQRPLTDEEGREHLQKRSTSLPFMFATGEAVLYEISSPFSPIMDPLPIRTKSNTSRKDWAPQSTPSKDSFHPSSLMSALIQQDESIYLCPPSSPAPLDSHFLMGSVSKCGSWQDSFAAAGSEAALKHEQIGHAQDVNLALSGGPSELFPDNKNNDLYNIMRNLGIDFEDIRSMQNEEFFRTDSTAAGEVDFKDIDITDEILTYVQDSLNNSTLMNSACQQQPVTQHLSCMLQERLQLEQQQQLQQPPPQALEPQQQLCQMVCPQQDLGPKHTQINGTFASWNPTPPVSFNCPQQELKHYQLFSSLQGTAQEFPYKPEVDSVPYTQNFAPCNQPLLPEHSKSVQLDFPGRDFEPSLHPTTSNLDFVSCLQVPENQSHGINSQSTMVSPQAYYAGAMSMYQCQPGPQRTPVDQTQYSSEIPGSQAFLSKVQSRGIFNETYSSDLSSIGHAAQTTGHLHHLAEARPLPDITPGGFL

SMILES: COc1cc(-c2cc(=O)c3ccccc3o2)ccc1[N+](=O)[O-]
- Activity [1]: Non-Toxic
- Activity [2]: Active
- Activity [3]: Active
- Activity [4]: Active
- Activity [5]: Active
